Assay results taken from publication PMC4119689, “Investigation of the Interaction between Patulin and Human Serum Albumin by a Spectroscopic Method, Atomic Force Microscopy, and Molecular Modeling” (BioMed Research International, 2014).

Target: T1, human serum albumin (HSA) (Homo sapiens, UniProt P02768)
T1 construct: gene ALB
Assay: Trp-214 fluorescence quenching titration (association constant KA at […] K), supported by time-resolved fluorescence, UV-Vis, CD and AFM; quenching described as dynamic
Type: binding
Settings: read-out: Equation (3) / K A/M^-1 (converted)

T1 sequence (P02768 25-609): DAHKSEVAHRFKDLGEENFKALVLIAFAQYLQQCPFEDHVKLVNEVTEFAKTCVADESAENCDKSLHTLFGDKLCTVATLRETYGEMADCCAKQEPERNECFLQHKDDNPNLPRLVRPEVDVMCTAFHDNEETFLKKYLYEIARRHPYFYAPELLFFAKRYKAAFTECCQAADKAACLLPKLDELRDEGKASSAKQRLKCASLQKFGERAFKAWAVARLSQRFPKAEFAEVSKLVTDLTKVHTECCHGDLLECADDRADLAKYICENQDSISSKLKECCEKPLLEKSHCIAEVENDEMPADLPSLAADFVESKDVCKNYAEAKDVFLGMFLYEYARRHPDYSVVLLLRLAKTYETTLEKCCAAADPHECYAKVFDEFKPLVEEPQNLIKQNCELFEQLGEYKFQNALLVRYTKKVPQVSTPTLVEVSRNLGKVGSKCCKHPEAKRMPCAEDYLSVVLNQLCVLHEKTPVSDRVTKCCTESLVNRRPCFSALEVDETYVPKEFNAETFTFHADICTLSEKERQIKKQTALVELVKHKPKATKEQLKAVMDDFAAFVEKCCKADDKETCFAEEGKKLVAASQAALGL

Work on `O=C1C=C2C(=CCOC2O)O1` (stereo not shown) [patulin] yielded a Kd of 38.5 µM.
